According to ChEMBL document CHEMBL1201862, “PubChem BioAssay data set” (2004):
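Growth conditions: 96-well plates. Treatment: test compound, 48 hours, 5 concentrations. Analysis: linear interpolation between bracketing concentrations; unreached endpoints set to highest concentration. Abbreviation: GI50, concentration required for 50% inhibition of growth.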 Calls of active or inactive are those of the source. Cut-off read from the data, not from the text of the source: active = GI50 up to about 1.1 µM and inactive = higher.

Experiments:
Test in all cases: NCI-60 cell line screen, 48 h
SK-OV-3 = test system: SK-OV-3
SK-MEL-2 = test system: SK-MEL-2
SF-539 = test system: SF-539
CCRF-CEM = test system: CCRF-CEM
SNB-75 = test system: SNB-75
SF-295 = test system: SF-295
HL-60 = test system: HL-60
A498 = test system: A498
HOP-62 = test system: HOP-62
LOX IMVI = test system: LOX IMVI
Malme-3M = test system: Malme-3M
CAKI-1 = test system: CAKI-1
NCI-H460 = test system: NCI-H460
K562 = test system: K562
SR = test system: SR
EKVX = test system: EKVX

For COc1ccc([Se][Se]c2ccc(OC)cc2OC)c(OC)c1, the GI50 (SK-OV-3) was 32.4 µM (inactive), the GI50 (SK-MEL-2) was 4.08 µM (inactive) and the GI50 (SF-539) was 1.75 µM (inactive). For the same compound, the GI50 (CCRF-CEM) was 2.08 µM (inactive), the GI50 (SNB-75) was 1.59 µM (inactive) and the GI50 (SF-295) was 2.1 µM (inactive). For the same compound, the GI50 (HL-60) was 2.43 µM (inactive), the GI50 (A498) was 18.2 µM (inactive) and the GI50 (HOP-62) was > 10 µM (inactive). The GI50 (LOX IMVI) was 2 µM (inactive), the GI50 (Malme-3M) was 4.54 µM (inactive) and the GI50 (CAKI-1) was 3.54 µM (inactive). The GI50 (NCI-H460) was 4.29 µM (inactive) and the GI50 (K562) was 2.88 µM (inactive).
With CC(C)(C)OC(=O)NC1CCCC1=O (configuration not stated) the GI50 (SK-OV-3) was > 100 µM (inactive), the GI50 (SK-MEL-2) was > 100 µM (inactive) and the GI50 (SF-539) was > 100 µM (inactive). For the same compound, the GI50 (CCRF-CEM) was > 100 µM (inactive), the GI50 (SNB-75) was 40.9 µM (inactive) and the GI50 (SF-295) was > 100 µM (inactive). The GI50 (A498) was 8.3 µM (inactive), the GI50 (HOP-62) was > 100 µM (inactive) and the GI50 (LOX IMVI) was > 100 µM (inactive). The GI50 (Malme-3M) was > 100 µM (inactive), the GI50 (CAKI-1) was > 100 µM (inactive) and the GI50 (SR) was > 100 µM (inactive). For the same compound, the GI50 (NCI-H460) was > 100 µM (inactive), the GI50 (EKVX) was > 100 µM (inactive) and the GI50 (K562) was > 100 µM (inactive).
In the case of NCC1(N2CCOCC2)C2CCCC21CO (configuration not stated), the GI50 (SK-OV-3) is reported as > 100 µM (inactive), the GI50 (SK-MEL-2) is reported as > 100 µM (inactive) and the GI50 (SF-539) is reported as > 100 µM (inactive). The GI50 (CCRF-CEM) was > 100 µM (inactive), the GI50 (SNB-75) was > 100 µM (inactive) and the GI50 (SF-295) was > 100 µM (inactive). For the same compound, the GI50 (HL-60) was > 100 µM (inactive), the GI50 (HOP-62) was > 100 µM (inactive) and the GI50 (Malme-3M) was > 100 µM (inactive). The GI50 (CAKI-1) was > 100 µM (inactive), the GI50 (SR) was > 100 µM (inactive) and the GI50 (NCI-H460) was > 100 µM (inactive). For the same compound, the GI50 (K562) was > 100 µM (inactive).
For COC(=O)/C([Se]c1c(C)cc(C)cc1C)=C(\[Se]c1c(C)cc(C)cc1C)C(=O)OC, the GI50 (SK-OV-3) was > 100 µM (inactive), the GI50 (SK-MEL-2) was > 100 µM (inactive) and the GI50 (SF-539) was > 10 µM (inactive). For the same compound, the GI50 (CCRF-CEM) was > 100 µM (inactive), the GI50 (SNB-75) was > 100 µM (inactive) and the GI50 (SF-295) was > 100 µM (inactive). For the same compound, the GI50 (HL-60) was > 100 µM (inactive), the GI50 (A498) was > 100 µM (inactive) and the GI50 (HOP-62) was > 100 µM (inactive). For the same compound, the GI50 (LOX IMVI) was > 100 µM (inactive), the GI50 (Malme-3M) was > 100 µM (inactive) and the GI50 (CAKI-1) was > 100 µM (inactive). For the same compound, the GI50 (SR) was > 100 µM (inactive), the GI50 (NCI-H460) was > 100 µM (inactive) and the GI50 (EKVX) was > 100 µM (inactive). The GI50 (K562) was > 100 µM (inactive).
With COC(=O)C(=O)C(C(=O)C(=O)Nc1ccccc1C(N)=O)c1nc2ccc(C(=O)c3ccccc3)cc2nc1O (configuration not stated) the GI50 (SK-MEL-2) was > 100 µM (inactive), the GI50 (SF-539) was > 100 µM (inactive) and the GI50 (CCRF-CEM) was > 100 µM (inactive). For the same compound, the GI50 (SF-295) was > 100 µM (inactive), the GI50 (A498) was 45 µM (inactive) and the GI50 (Malme-3M) was > 100 µM (inactive). The GI50 (CAKI-1) was 25.9 µM (inactive), the GI50 (SR) was 68.1 µM (inactive) and the GI50 (NCI-H460) was > 100 µM (inactive). The GI50 (EKVX) was > 100 µM (inactive) and the GI50 (K562) was 42.6 µM (inactive).
For COc1cccc2c1c1ccc3c(c1n2C)C(=O)C=CC3=O, the GI50 (SK-OV-3) was > 100 µM (inactive), the GI50 (SK-MEL-2) was 16.9 µM (inactive) and the GI50 (SF-539) was 16.6 µM (inactive). For the same compound, the GI50 (CCRF-CEM) was 0.615 µM (active), the GI50 (SNB-75) was 0.695 µM (active) and the GI50 (SF-295) was > 100 µM (inactive). For the same compound, the GI50 (HL-60) was 1.51 µM (inactive), the GI50 (A498) was > 100 µM (inactive) and the GI50 (HOP-62) was > 100 µM (inactive). The GI50 (LOX IMVI) was 16.9 µM (inactive), the GI50 (Malme-3M) was 13.9 µM (inactive) and the GI50 (CAKI-1) was 3.15 µM (inactive). The GI50 (SR) was 2.4 µM (inactive), the GI50 (NCI-H460) was 48.4 µM (inactive) and the GI50 (K562) was 3.61 µM (inactive).
In the case of COc1cc(C(Cc2ccccc2)NC(C)=O)oc(=O)c1 (configuration not stated), the GI50 (SK-OV-3) is reported as > 100 µM (inactive), the GI50 (SK-MEL-2) is reported as > 100 µM (inactive) and the GI50 (CCRF-CEM) is reported as > 100 µM (inactive). The GI50 (SNB-75) was 25 µM (inactive), the GI50 (SF-295) was > 100 µM (inactive) and the GI50 (HL-60) was > 100 µM (inactive). For the same compound, the GI50 (A498) was > 100 µM (inactive), the GI50 (HOP-62) was > 100 µM (inactive) and the GI50 (LOX IMVI) was > 100 µM (inactive). For the same compound, the GI50 (Malme-3M) was > 100 µM (inactive), the GI50 (CAKI-1) was > 100 µM (inactive) and the GI50 (NCI-H460) was > 100 µM (inactive). The GI50 (EKVX) was > 100 µM (inactive) and the GI50 (K562) was > 100 µM (inactive).
COc1cc2c(cc1O)CCN[C@@]21CS[C@H]2c3c(OC(C)=O)c(C)c4c(c3C(COC1=O)N1C2C2NC(Cc3cc(C)c(OC)c(O)c32)[C@@H]1C#N)OCO4 (some centres not stated) was tested, and the GI50 (SK-MEL-2) was < 0.01 µM (active), the GI50 (SF-539) was < 0.01 µM (active) and the GI50 (CCRF-CEM) was < 0.01 µM (active). For the same compound, the GI50 (SNB-75) was < 0.01 µM (active), the GI50 (HL-60) was < 0.01 µM (active) and the GI50 (A498) was < 0.01 µM (active). The GI50 (HOP-62) was < 0.01 µM (active), the GI50 (LOX IMVI) was < 0.01 µM (active) and the GI50 (Malme-3M) was < 0.01 µM (active). The GI50 (SR) was < 0.01 µM (active), the GI50 (NCI-H460) was < 0.01 µM (active) and the GI50 (EKVX) was < 0.01 µM (active). For the same compound, the GI50 (K562) was < 0.01 µM (active).
C/N=C(\N)c1ccc(NC(=N)c2ccc(C(=N)Nc3ccc(/C(N)=N/C)cc3)cc2)cc1 was tested, and the GI50 (SK-OV-3) was > 100 µM (inactive), the GI50 (SK-MEL-2) was > 100 µM (inactive) and the GI50 (SF-539) was > 100 µM (inactive). The GI50 (CCRF-CEM) was > 100 µM (inactive), the GI50 (SNB-75) was > 100 µM (inactive) and the GI50 (SF-295) was > 100 µM (inactive). For the same compound, the GI50 (HL-60) was > 100 µM (inactive), the GI50 (HOP-62) was > 100 µM (inactive) and the GI50 (LOX IMVI) was > 100 µM (inactive). For the same compound, the GI50 (Malme-3M) was > 100 µM (inactive), the GI50 (CAKI-1) was > 100 µM (inactive) and the GI50 (NCI-H460) was > 100 µM (inactive). The GI50 (K562) was > 100 µM (inactive).
With COC(=O)C(C(=O)C(=O)Nc1ccc(C)cc1C)c1csc(-n2nc(-c3ccccc3)cc2-c2ccccc2)n1 (configuration not stated) the GI50 (SK-OV-3) was > 100 µM (inactive), the GI50 (CCRF-CEM) was 83.2 µM (inactive) and the GI50 (SNB-75) was 6.37 µM (inactive). For the same compound, the GI50 (HL-60) was > 100 µM (inactive), the GI50 (A498) was > 100 µM (inactive) and the GI50 (HOP-62) was > 100 µM (inactive). The GI50 (LOX IMVI) was 80 µM (inactive), the GI50 (Malme-3M) was > 100 µM (inactive) and the GI50 (CAKI-1) was > 100 µM (inactive). The GI50 (SR) was > 100 µM (inactive), the GI50 (NCI-H460) was > 100 µM (inactive) and the GI50 (EKVX) was 73.3 µM (inactive). For the same compound, the GI50 (K562) was 93.5 µM (inactive).
